Results as given in publication PMC9811213, “Glutamine deamidation does not increase the immunogenicity of C-peptide in people with type 1 diabetes” (Journal of Translational Autoimmunity, 2022).

Tests used:
[1] = tested on: Jurkat line (ACD4_38) expressing a C-peptide specific TCR; experiment: IL-2 secretion (ELISA) by TCR-transduced Jurkat line, peptide titration; format: cell-based, human; details: clone ACD4_38, two independent experiments
Experimental: (§1) TCR-transduced T cells were cultured, in triplicate, in cRPMI/5% FBS at 2 × 10^4/well with an equal number of EBV-transformed B cells (see Supplementary Table 3) and different peptides (Purar Chemicals). See Supplementary Table 6 for a full list of peptides used in this study. The positive control was PMA (10 ng/mL) and ionomycin (500 ng/mL) in culture media. Negative controls had all cells, but no peptide. After overnight culture supernatant was collected for IL-2 ELISA.
(§2) ELISAs were performed using the ELISA MAX™ Deluxe set Human IL-2 (BioLegend) as per the manufacturer's instructions. Briefly, 96-well ELISA plates (Greiner Bio-One) were coated with 100μL/well of purified anti-human IL-2 antibody diluted 1:200. […] The reaction was stopped by the addition of 2 M H2SO4 solution (BioLegend) and optical density (OD) measured using a FLUOstar Omega microplate reader (BMG LabTech). The amount of IL-2 secreted was determined using a linear regression of all OD values (minus the background) of the standard curve. […]
To determine if C-peptide specific TCRs were more sensitive to Q to E variants of C-peptide we tested graded concentrations of wild type C-peptide and five deamidated variants. […] To compare the relative potency of the Q to E substituted peptides the responses were calculated as fold change relative to full-length, WT C-peptide (Fig. 2D). […]

[2] = tested on: 18 Jurkat T-cell lines expressing C-peptide specific TCRs; experiment: IL-2 secretion (ELISA) by panel of 18 TCR-transduced Jurkat lines, peptide titration; format: cell-based, human; details: Mann-Whitney test, Fig. 2H
Experimental: as §1
as §2, with “instructions.” for “instructions. Briefly, 96-well ELISA plates (Greiner Bio-One) were coated with 100μL/well of purified anti-human IL-2 antibody diluted 1:200.”
Fig. 2 C-peptide specific TCR responses to deamidated C-peptide variants (A) Each peptide is referred to by the position, within C-peptide of the glutamine (Q), in bold, to glutamic acid (E), in red text, substitutions. […] (C) The EC50 for each peptide was calculated the and the EC50 from two independent experiments are shown. […] Statistical significance was determined using the Mann-Whitney test (ns, not significant, […], p < 0.05, **p < 0.01, ***p < 0.001). […]

Stimulation compared with WT C-peptide and the other single substituted peptides (EC50, IL-2) [1]	Difference in fold change in EC50 (relative to full-length C-peptide) between clones with overlapping and non-overlapping epitopes [2]	Sequence
dramatically less stimulatory	–	EAEDLEVGEVELGGGPGAGSLEPLALEGSLE [QallE, C-peptide with all four glutamines substituted for glutamic acid]
dramatically less stimulatory	–	EAEDLQVGEVELGGGPGAGSLQPLALEGSLQ [Q9E, C-peptide variant with glutamine 9 substituted for glutamic acid]
–	no difference	EAEDLQVGQVELGGGPGAGSLQPLALEGSLE [Q31E, C-peptide variant with glutamine 31 substituted for glutamic acid]
